According to patent US11787762B2, “Tetralin and tetrahydroquinoline compounds as inhibitors of HIF-2alpha” (ARCUS BIOSCIENCES, INC., priority 2020, dated 2023):
pIC50: −log10 of the molar value.

Assays:
HIF-2α = target: T1, HIF-2α (Homo sapiens, UniProt Q99814); assay: HIF-2α luciferase reporter assay in HIF-Luc-786-O cells; format: cell-based; settings: Table 1, 20 hours incubation
T1 construct: host or cells: 786-O cells stably transduced with Cignal Lenti HIF Luc Reporter (only the reporter was introduced, not HIF-2α)
Outline: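 Luminescence (ONE-Glo) read after 20 h compound incubation, top concentration 50 uM, 1% DMSO, 20,000 HIF-Luc-786-O cells per well. Activity scaled between DMSO maximum and no-cell baseline; four-parameter dose-response fits yielded IC50.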

[1] = target: T2, Histidine tagged HIF-2α protein containing PAS-B domain (240-350) (Homo sapiens, UniProt Q99814); assay: HIF-2α Scintillation Proximity Assay (SPA) binding assay; settings: Table 1; 50 nM HIF-2α protein, 25 nM 3H-tracer
T2 construct: HIF-2α protein containing PAS-B domain (240-350); made in house
Experimental: HIF-2α Scintillation Proximity Assay (SPA) Binding Assay:
Tritium labeled compound N-(3-chlorophenyl)-4-nitro-2,1,3-benzoxadiazol-5-amine was obtained from American Radiolabeled Chemicals Inc. and copper chelate PVT SPA beads were from PerkinElmer (Cat #RPNQ0095). Histidine tagged HIF-2α protein containing PAS-B domain (240-350) was prepared and purified in house.
Compounds solubilized in DMSO were dispensed into a white 384-well polystyrene non-binding flat clear bottom plate (Greiner Bio-One, Cat #781903) using an HP D300 dispenser. Ten microliters of HIS-tagged HIF-2α protein in buffer (25 mM Tris-HCl, pH 7.4, 150 mM NaCl, 0.15% BSA and 0.001% Tween 20) was added to the compound wells and allowed to incubate for 1 hour at room temperature. Ten microliters of SPA bead mix were added to the wells and incubated for an additional 45 minutes, followed by 10 ul of ^3H-tracer solution. Final assay conditions comprised 50 nM HIF-2α protein, 25 nM radiolabeled tracer and 3 ug beads per well with compounds in 2% DMSO. The plate was read using a MicroBeta Microplate Counter (PerkinElmer) for luminescence detection. The IC50 values of the test compounds were determined from compound dose response curves fitted using a standard four parameter fit equation and are reported in Table 1, Table 2, and Table 3.

T1 sequence (Q99814 whole entry): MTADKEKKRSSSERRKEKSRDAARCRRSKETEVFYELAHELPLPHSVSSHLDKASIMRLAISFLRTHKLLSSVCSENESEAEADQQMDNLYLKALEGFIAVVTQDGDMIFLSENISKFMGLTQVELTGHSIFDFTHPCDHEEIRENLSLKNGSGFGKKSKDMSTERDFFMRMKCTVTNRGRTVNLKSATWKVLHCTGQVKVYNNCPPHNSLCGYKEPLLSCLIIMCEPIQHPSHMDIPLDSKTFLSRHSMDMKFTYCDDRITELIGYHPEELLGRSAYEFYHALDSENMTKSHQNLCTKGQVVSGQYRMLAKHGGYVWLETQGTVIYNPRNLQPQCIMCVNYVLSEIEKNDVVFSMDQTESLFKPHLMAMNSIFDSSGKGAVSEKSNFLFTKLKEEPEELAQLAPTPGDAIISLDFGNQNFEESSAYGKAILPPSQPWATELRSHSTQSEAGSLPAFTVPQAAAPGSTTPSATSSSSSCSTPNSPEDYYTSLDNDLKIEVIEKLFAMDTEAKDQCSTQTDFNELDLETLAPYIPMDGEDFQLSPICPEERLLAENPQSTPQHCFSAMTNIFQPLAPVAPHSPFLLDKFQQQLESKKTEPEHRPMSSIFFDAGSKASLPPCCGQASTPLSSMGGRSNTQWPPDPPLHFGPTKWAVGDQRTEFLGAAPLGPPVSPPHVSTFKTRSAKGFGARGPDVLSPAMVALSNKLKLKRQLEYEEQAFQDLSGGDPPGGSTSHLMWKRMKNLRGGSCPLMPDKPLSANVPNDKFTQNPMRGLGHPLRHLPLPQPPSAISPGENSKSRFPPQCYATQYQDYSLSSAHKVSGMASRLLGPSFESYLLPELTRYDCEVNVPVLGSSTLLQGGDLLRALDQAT
T2 sequence (Q99814 240-350): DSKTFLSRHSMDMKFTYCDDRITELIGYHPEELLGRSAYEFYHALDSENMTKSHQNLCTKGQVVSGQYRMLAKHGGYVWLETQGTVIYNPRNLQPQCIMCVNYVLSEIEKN

pIC50 (HIF-2α) | pIC50 [1] | SMILES
6.00 to 7.00 | 6.00 to 7.00 | O=S(=O)(c1ccc(N2CCC(CO)c3cc(F)cc(F)c32)c2c1[C@H](O)[C@H](F)C2)C(F)(F)F (some centres unmarked) [Example 27]
6.00 to 7.00 | 6.00 to 7.00 | N#Cc1cc(F)cc2c1N(c1ccc(C(F)(F)F)c(C#N)c1Cl)CCC2 [Example 28]
6.00 to 7.00 | 6.00 to 7.00 | CC1CCN(c2ccc(S(=O)(=O)C(F)(F)F)c3c2C[C@@H](F)[C@H]3O)c2c(F)cc(F)cc21 (some centres unmarked) [Example 30]
6.00 to 7.00 | 6.00 to 7.00 | N#Cc1cc(F)cc2c1N(c1cnc(C(F)(F)F)c(F)c1)CCC2 [Example 32]
6.00 to 7.00 | 6.00 to 7.00 | O=S(=O)(c1ccc(N2CCCc3cc(F)cc(F)c32)c2c1[C@H](O)[C@H](F)C2)C(F)(F)F [Example 33]
6.00 to 7.00 | < 6.00 | O=[N+]([O-])c1c(N2CCCc3cc(F)cc(F)c32)ccc2nonc12 [Example 34]
6.00 to 7.00 | < 6.00 | Fc1cc(F)c2c(c1)CCCN2c1ccc(C(F)(F)F)nc1 [Example 35]
6.00 to 7.00 | 6.00 to 7.00 | Cc1c(N2CCCc3cc(F)cc(C#N)c32)ccc(C(F)(F)F)c1F [Example 37]
6.00 to 7.00 | 6.00 to 7.00 | O=S(=O)(c1ccc(N2CCCc3cc(F)cc(F)c32)c2c1C(O)C(F)(F)C2)C(F)(F)F (centres unmarked) [Example 38]
< 6.00 | 6.00 to 7.00 | N#Cc1cc(F)cc2c1N(c1ccc(S(=O)(=O)C(F)(F)F)c3ncccc13)CCC2 [Example 40]
< 6.00 | 6.00 to 7.00 | CS(=O)(=O)c1ccc(N2CCCc3cc(F)cc(C#N)c32)c2c1[C@H](O)[C@H](F)C2 [Example 41]
< 6.00 | 6.00 to 7.00 | N#Cc1cc(F)cc2c1N(c1ccc(C(F)(F)F)c(F)c1CO)CCC2 [Example 42]
< 6.00 | 6.00 to 7.00 | CS(=O)(=O)c1ccc(N2CCCc3cc(F)cc(F)c32)c(Cl)c1C#N [Example 43]
< 6.00 | < 6.00 | N#Cc1cc(F)cc2c1N(c1ccc(C(F)(F)F)c(F)c1CCO)CCC2 [Example 44]
< 6.00 | 6.00 to 7.00 | CC[C@@H]1CCN(c2ccc(S(=O)(=O)C(F)(F)F)c3c2C[C@@H](F)[C@H]3O)c2c(F)cc(F)cc21 [Example 45]
< 6.00 | < 6.00 | Cc1c(F)ccc2c1N(c1ccc(S(=O)(=O)C(F)(F)F)cc1[N+](=O)[O-])CCC2 [Example 46]
< 6.00 | 6.00 to 7.00 | CS(=O)(=O)c1ccc(N2CCCc3cc(F)cc(Cl)c32)c2c1[C@H](O)[C@H](F)C2 [Example 47]
< 6.00 | 6.00 to 7.00 | O=S(=O)(c1ccc(N2CCCc3cc(F)cc(F)c32)c2c1C(F)C(F)(F)C2)C(F)(F)F (centres unmarked) [Example 48]
< 6.00 | 6.00 to 7.00 | O=S(=O)(c1ccc(N2CCCc3cc(F)cc(F)c32)c2c1C(F)CC2)C(F)(F)F (centres unmarked) [Example 49]
< 6.00 | < 6.00 | O=S(=O)(c1ccc(N2C[C@H](O)Cc3cc(F)cc(F)c32)c2c1[C@H](O)[C@H](F)C2)C(F)(F)F [Example 50]
< 6.00 | 6.00 to 7.00 | O=S1(=O)c2ccc(N3CCCc4cc(F)cc(F)c43)c(Cl)c2C(O)C1(F)F (centres unmarked) [Example 52]
< 6.00 | < 6.00 | CS(=O)(=O)c1ccc(N2CCCc3cc(F)cc(F)c32)c(C(F)F)c1C#N [Example 53]
< 6.00 | < 6.00 | O=S(=O)(c1ccc(N2CCCc3cc(F)cc(F)c32)c2c1[C@H](O)[C@@H](F)C2)C(F)(F)F [Example 54]
< 6.00 | < 6.00 | CC(C)(O)c1cc(N2CCCc3cc(F)cc(F)c32)ccc1S(C)(=O)=O [Example 55]
< 6.00 | 6.00 to 7.00 | O=S1(=O)c2ccc(N3CCCc4cc(F)cc(F)c43)c(Cl)c2C(F)C1(F)F (centres unmarked) [Example 56]
< 6.00 | < 6.00 | O=[N+]([O-])c1cc(S(=O)(=O)C(F)(F)F)ccc1N1CCCc2ccc(F)c(F)c21 [Example 57]
< 6.00 | < 6.00 | O=[N+]([O-])c1cc(S(=O)(=O)C(F)(F)F)ccc1N1CCCc2cc(Cl)cc(F)c21 [Example 58]
< 6.00 | < 6.00 | CC(O)(c1ccc(N2CCCc3cc(F)cc(C#N)c32)c([N+](=O)[O-])c1)C(F)(F)F (centres unmarked) [Example 59]

pIC50 (HIF-2α) | pIC50 [1] | SMILES
< 6.00 | < 6.00 | COc1ccc2c(c1)N(c1ccc(S(=O)(=O)C(F)(F)F)cc1[N+](=O)[O-])CCC2 [Example 60]
< 6.00 | < 6.00 | N#Cc1cc(F)cc2c1N(c1ccc(C(F)(F)F)c(F)c1C(O)C(F)(F)F)CCC2 (centres unmarked) [Example 61]
< 6.00 | < 6.00 | O=[N+]([O-])c1cc(S(=O)(=O)C(F)(F)F)ccc1N1CCCc2cc(F)ccc21 [Example 62]
< 6.00 | < 6.00 | OCc1cc(N2CCCc3cc(F)cc(F)c32)ccc1C(F)(F)F [Example 63]
< 6.00 | < 6.00 | O=[N+]([O-])c1cc(S(=O)(=O)C(F)(F)F)ccc1N1CCCc2c(F)cc(F)cc21 [Example 64]
< 6.00 | < 6.00 | N#Cc1ccc2c(c1)N(c1ccc(S(=O)(=O)C(F)(F)F)cc1[N+](=O)[O-])CCC2 [Example 65]
< 6.00 | < 6.00 | O=S(=O)(c1ccc(N2C[C@@H](O)Cc3cc(F)cc(F)c32)c2c1[C@H](O)[C@H](F)C2)C(F)(F)F [Example 66]
< 6.00 | < 6.00 | O=Cc1c(S(=O)(=O)C(F)(F)F)ccc(N2CCCc3cc(F)cc(F)c32)c1Cl [Example 68]
< 6.00 | 6.00 to 7.00 | O=Cc1c(S(=O)(=O)C(F)(F)F)ccc(N2CCCc3cc(F)cc(F)c32)c1Cl [Example 69]
< 6.00 | < 6.00 | O=[N+]([O-])c1cc(C(O)(C(F)(F)F)C(F)(F)F)ccc1N1CCCc2cc(F)cc(F)c21 [Example 70]
< 6.00 | < 6.00 | N#Cc1c(Cl)ccc(N2CCCc3cc(F)cc(F)c32)c1C(F)F [Example 71]
< 6.00 | < 6.00 | N#Cc1c(S(N)(=O)=O)ccc(N2CCCc3cc(F)cc(F)c32)c1C(F)F [Example 72]
< 6.00 | < 6.00 | O=[N+]([O-])c1cc(S(=O)(=O)C(F)(F)F)ccc1N1CCOc2cc(F)cc(F)c21 [Example 73]
< 6.00 | < 6.00 | Cc1ccc2c(c1)N(c1ccc(S(=O)(=O)C(F)(F)F)cc1[N+](=O)[O-])CCC2 [Example 74]
< 6.00 | < 6.00 | N#Cc1c(S(N)(=O)=O)ccc(N2CCCc3cc(F)cc(F)c32)c1Cl [Example 75]
< 6.00 | < 6.00 | O=S(=O)(c1ccc(N2CCCc3cc(F)cc(F)c32)cc1CO)C(F)(F)F [Example 76]
< 6.00 | < 6.00 | COC(=O)c1cc(N2CCCc3cc(F)cc(F)c32)ccc1S(=O)(=O)C(F)(F)F [Example 77]
< 6.00 | < 6.00 | O=S(=O)(c1ccc(N2CCCc3cc(F)cc(F)c32)c2c1C(O)CC2)C(F)(F)F (centres unmarked) [Example 78]
< 6.00 | < 6.00 | O=S(=O)(c1ccc(N2CCCc3cc(F)cc(F)c32)c(Cl)c1C(O)C(F)(F)F)C(F)(F)F (centres unmarked) [Example 79]
< 6.00 | < 6.00 | N#Cc1cc(S(=O)(=O)C(F)(F)F)ccc1N1CCCc2cc(F)cc(F)c21 [Example 80]
< 6.00 | < 6.00 | O=S(=O)(c1ccc(N2CCCc3cc(F)cc(F)c32)c2cn[nH]c12)C(F)(F)F [Example 81]
< 6.00 | < 6.00 | O=S(=O)(c1ccc(N2CCCc3cc(F)cc(F)c32)c(Cl)c1CO)C(F)(F)F [Example 83]
< 6.00 | < 6.00 | O=[N+]([O-])c1cc(C(O)C(F)(F)F)ccc1N1CCCc2cc(F)cc(F)c21 (centres unmarked) [Example 84]
< 6.00 | < 6.00 | COC(=O)c1c(S(=O)(=O)C(F)(F)F)ccc(N2CCCc3cc(F)cc(F)c32)c1Cl [Example 85]
< 6.00 | < 6.00 | N#Cc1cc(C(F)(F)F)ncc1N1CCCc2cc(F)cc(F)c21 [Example 86]
< 6.00 | < 6.00 | CC(O)(c1ccc(N2CCCc3cc(F)cc(F)c32)c([N+](=O)[O-])c1)C(F)(F)F (centres unmarked) [Example 87]
> 7.00 | > 7.00 | O=S(=O)(c1ccc(C2CCCc3cc(F)cc(F)c32)c2c1[C@H](O)[C@H](F)C2)C(F)(F)F (some centres unmarked) [Example 89]

SMILES | pIC50 (HIF-2α) | pIC50 [1]
N#Cc1cc(F)cc2c1N(c1ccc(C(F)(F)F)c(Cl)c1C#N)CCC2 [Example 29] | 6.00 to 7.00 | 6.00 to 7.00
N#Cc1cc(F)cc2c1N(c1ccc(C(F)(F)F)c(C#N)c1Cl)CCO2 [Example 36] | 6.00 to 7.00 | 6.00 to 7.00
N#Cc1cc(N2CCCc3cc(F)cc(C#N)c32)ccc1C(F)(F)F [Example 39] | < 6.00 | > 7.00
